From publication PMC9090415, “Discovery of small molecule inhibitors of Plasmodium falciparum apicoplast DNA polymerase” (Journal of Enzyme Inhibition and Medicinal Chemistry, 2022)

Molecular target: P. falciparum apicoplast DNA polymerase (Pf-apPOL) (Plasmodium falciparum, UniProt Q8ILY1)
Experiment: Fluorescence-based high-throughput DNA polymerase assay (molecular beacon), primary screen and dose-response;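 on % inhibition ApPOL 90': test concentration in µM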;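 on % inhibition apPOL 180': test concentration in µM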
Type: biochemical
Details: for IC50: supplemental file 2, sheet IC50 nontoxic compounds, Pf-apPOL; for DNA Pol: 90 min, 10 µM
Procedure, shortened: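 Single-point screening used 10 µM compound with 20 nM polymerase, 20 nM hairpin substrate and 6 µM dNTPs for 90 min at 25 °C. Confirmatory titrations (2.5–80 µM) followed fluorescence at three times, and IC50 was derived from a fit including a cooperativity term n.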

[1] = primary screen value of the 186 hits, unit not given

Sequence of P. falciparum apicoplast DNA polymerase (Pf-apPOL) (Q8ILY1 entry or part of it): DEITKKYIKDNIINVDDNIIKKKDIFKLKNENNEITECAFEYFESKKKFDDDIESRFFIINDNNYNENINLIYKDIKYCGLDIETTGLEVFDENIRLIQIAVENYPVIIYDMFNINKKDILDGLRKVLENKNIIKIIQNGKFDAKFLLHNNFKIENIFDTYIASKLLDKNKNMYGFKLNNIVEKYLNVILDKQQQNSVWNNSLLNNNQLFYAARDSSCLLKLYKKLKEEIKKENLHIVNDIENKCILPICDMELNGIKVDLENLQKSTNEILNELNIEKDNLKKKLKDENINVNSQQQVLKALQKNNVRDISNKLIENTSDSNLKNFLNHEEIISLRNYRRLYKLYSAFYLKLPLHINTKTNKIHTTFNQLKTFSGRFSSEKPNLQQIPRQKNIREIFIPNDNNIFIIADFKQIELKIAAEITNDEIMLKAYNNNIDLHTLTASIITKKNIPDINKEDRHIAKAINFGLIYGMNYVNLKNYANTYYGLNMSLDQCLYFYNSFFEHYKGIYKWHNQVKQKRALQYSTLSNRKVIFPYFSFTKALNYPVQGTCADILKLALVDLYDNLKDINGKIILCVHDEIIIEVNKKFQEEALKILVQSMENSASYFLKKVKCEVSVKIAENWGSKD

Compound `COCC(=O)Nc1c(-c2cccc(F)c2)nc2cc(C)ccn12` [Molecule 44] has an IC50 of 11.1 µM.

Compound `Cc1ccccc1C(=O)N1CCc2c(nc3cc(-c4ccccc4)[nH]n3c2=O)C1` [Molecule 41] has an IC50 of 12.4 µM.

`O=C1N/C(=N/c2ccccc2Cl)S/C1=C/c1ccc([N+](=O)[O-])o1` [KU0054524] was tested, and the “% inhibition Apo pol 10'” value (DRC-1, concentration 2.5) was 7.564%, the “% inhibition Apo pol 10'” value (DRC-1, concentration 5) was 28.3365% and the “% inhibition Apo pol 10'” value (DRC-1, concentration 10) was 42.7276%. For the same compound, the “% inhibition Apo pol 10'” value (DRC-1, concentration 20) was 56.2802%, the “% inhibition Apo pol 10'” value (DRC-1, concentration 40) was 80.0033% and the “% inhibition Apo pol 10'” value (DRC-1, concentration 80) was 85.9961%. For the same compound, the “% inhibition Apol 90'” value (DRC-1, 90', concentration 2.5) was 2.857%, the “% inhibition Apol 90'” value (DRC-1, 90', concentration 5) was 16.2843% and the “% inhibition Apol 90'” value (DRC-1, 90', concentration 10) was 26.4398%. For the same compound, the “% inhibition Apol 90'” value (DRC-1, 90', concentration 20) was 38.2807%, the “% inhibition Apol 90'” value (DRC-1, 90', concentration 40) was 70.6237% and the “% inhibition Apol 90'” value (DRC-1, 90', concentration 80) was 84.7542%. For the same compound, the “% inhibition apPOL 180'” value (DRC-1, 180', concentration 2.5) was -2.619%, the “% inhibition apPOL 180'” value (DRC-1, 180', concentration 5) was 9.438% and the “% inhibition apPOL 180'” value (DRC-1, 180', concentration 10) was 15.4402%. For the same compound, the “% inhibition apPOL 180'” value (DRC-1, 180', concentration 20) was 23.638%, the “% inhibition apPOL 180'” value (DRC-1, 180', concentration 40) was 57.9424% and the “% inhibition apPOL 180'” value (DRC-1, 180', concentration 80) was 81.189%. The “% inhibition Apo pol 5'” value (DRC-2, 5', concentration 10 (unit not given)) was 42%, the “% inhibition Apol 40'” value (DRC-2, 40', concentration 40 (unit not given)) was 58% and the “% inhibition ApPOL 90'” value (DRC-2, 90', concentration 10 (unit not given)) was 42%. The “% inhibition apPOL 180'” value (DRC-2, 180', concentration 10 (unit not given)) was 31%, the “% inhibition apPOL 180'” value (DRC-2, 180', concentration 20 (unit not given)) was 58% and the “% inhibition Apo pol 5'” value (DRC-2, 5', concentration 2.5) was 17%. For the same compound, the “% inhibition Apo pol 5'” value (DRC-2, 5', concentration 5) was 22%, the “% inhibition Apo pol 5'” value (DRC-2, 5', concentration 10) was 42% and the “% inhibition Apo pol 5'” value (DRC-2, 5', concentration 20) was 46%. The “% inhibition Apo pol 5'” value (DRC-2, 5', concentration 40) was 25%, the “% inhibition Apo pol 5'” value (DRC-2, 5', concentration 80) was 31% and the “% inhibition Apo pol 5'” value (DRC-2, 5', concentration 80 (unit not given)) was 31%. The “% inhibition Apol 40'” value (DRC-2, 40', concentration 2.5) was 14%, the “% inhibition Apol 40'” value (DRC-2, 40', concentration 5) was 21% and the “% inhibition Apol 40'” value (DRC-2, 40', concentration 10) was 45%. For the same compound, the “% inhibition Apol 40'” value (DRC-2, 40', concentration 20) was 62%, the “% inhibition Apol 40'” value (DRC-2, 40', concentration 40) was 58% and the “% inhibition Apol 40'” value (DRC-2, 40', concentration 80) was 61%. The “% inhibition ApPOL 90'” value (DRC-2, 90', concentration 2.5) was 11%, the “% inhibition ApPOL 90'” value (DRC-2, 90', concentration 5) was 16% and the “% inhibition ApPOL 90'” value (DRC-2, 90', concentration 10) was 42%. The “% inhibition ApPOL 90'” value (DRC-2, 90', concentration 20) was 63%, the “% inhibition ApPOL 90'” value (DRC-2, 90', concentration 40) was 65% and the “% inhibition ApPOL 90'” value (DRC-2, 90', concentration 80) was 68%. For the same compound, the “% inhibition apPOL 180'” value (DRC-2, 180', concentration 2.5) was 7%, the “% inhibition apPOL 180'” value (DRC-2, 180', concentration 5) was 8% and the “% inhibition apPOL 180'” value (DRC-2, 180', concentration 10) was 31%. The “% inhibition apPOL 180'” value (DRC-2, 180', concentration 20) was 58%, the “% inhibition apPOL 180'” value (DRC-2, 180', concentration 40) was 67% and the “% inhibition apPOL 180'” value (DRC-2, 180', concentration 80) was 73%. For the same compound, the “DNA Pol” value [1] was 44 and the “DNA Pol” value (primary screen value, head "DNA Pol", unit not given) was 44.

`COc1ccc(-c2cc(=O)c3cc(O)ccc3o2)cc1OC` [KU0193655] was tested, and the “% inhibition Apo pol 10'” value (DRC-1, concentration 2.5) was -0.1967%, the “% inhibition Apo pol 10'” value (DRC-1, concentration 5) was 8.174% and the “% inhibition Apo pol 10'” value (DRC-1, concentration 10) was 18.1231%. For the same compound, the “% inhibition Apo pol 10'” value (DRC-1, concentration 20) was 34.6118%, the “% inhibition Apo pol 10'” value (DRC-1, concentration 40) was 62.4482% and the “% inhibition Apo pol 10'” value (DRC-1, concentration 80) was 84.2826%. For the same compound, the “% inhibition Apol 90'” value (DRC-1, 90', concentration 2.5) was 2.413%, the “% inhibition Apol 90'” value (DRC-1, 90', concentration 5) was 7.049% and the “% inhibition Apol 90'” value (DRC-1, 90', concentration 10) was 17.1119%. The “% inhibition Apol 90'” value (DRC-1, 90', concentration 20) was 31.7706%, the “% inhibition Apol 90'” value (DRC-1, 90', concentration 40) was 60.6022% and the “% inhibition Apol 90'” value (DRC-1, 90', concentration 80) was 83.5295%. The “% inhibition apPOL 180'” value (DRC-1, 180', concentration 2.5) was 2.832%, the “% inhibition apPOL 180'” value (DRC-1, 180', concentration 5) was 6.576% and the “% inhibition apPOL 180'” value (DRC-1, 180', concentration 10) was 16.442%. The “% inhibition apPOL 180'” value (DRC-1, 180', concentration 20) was 31.1115%, the “% inhibition apPOL 180'” value (DRC-1, 180', concentration 40) was 58.5037% and the “% inhibition apPOL 180'” value (DRC-1, 180', concentration 80) was 84.0263%. The “% inhibition Apo pol 5'” value (DRC-2, 5', concentration 2.5) was -0.529%, the “% inhibition Apo pol 5'” value (DRC-2, 5', concentration 5) was 0.718% and the “% inhibition Apo pol 5'” value (DRC-2, 5', concentration 10) was 15%. The “% inhibition Apo pol 5'” value (DRC-2, 5', concentration 20) was 23%, the “% inhibition Apo pol 5'” value (DRC-2, 5', concentration 40) was 39% and the “% inhibition Apo pol 5'” value (DRC-2, 5', concentration 80) was 47%. For the same compound, the “% inhibition Apol 40'” value (DRC-2, 40', concentration 2.5) was 1.36%, the “% inhibition Apol 40'” value (DRC-2, 40', concentration 5) was 3.64% and the “% inhibition Apol 40'” value (DRC-2, 40', concentration 10) was 19%. For the same compound, the “% inhibition Apol 40'” value (DRC-2, 40', concentration 20) was 29%, the “% inhibition Apol 40'” value (DRC-2, 40', concentration 40) was 49% and the “% inhibition Apol 40'” value (DRC-2, 40', concentration 80) was 61%. For the same compound, the “% inhibition ApPOL 90'” value (DRC-2, 90', concentration 2.5) was 0.778%, the “% inhibition ApPOL 90'” value (DRC-2, 90', concentration 5) was 6% and the “% inhibition ApPOL 90'” value (DRC-2, 90', concentration 10) was 20%. For the same compound, the “% inhibition ApPOL 90'” value (DRC-2, 90', concentration 20) was 32%, the “% inhibition ApPOL 90'” value (DRC-2, 90', concentration 40) was 53% and the “% inhibition ApPOL 90'” value (DRC-2, 90', concentration 80) was 65%. The “% inhibition apPOL 180'” value (DRC-2, 180', concentration 2.5) was -1.88%, the “% inhibition apPOL 180'” value (DRC-2, 180', concentration 5) was 5% and the “% inhibition apPOL 180'” value (DRC-2, 180', concentration 10) was 21%. The “% inhibition apPOL 180'” value (DRC-2, 180', concentration 20) was 34%, the “% inhibition apPOL 180'” value (DRC-2, 180', concentration 40) was 56% and the “% inhibition apPOL 180'” value (DRC-2, 180', concentration 80) was 68%. The “DNA Pol” value (primary screen value by plate and well) was 27 and the “DNA Pol” value [1] was 27.
